A word on the IC50: it is the point on the concentration scale where inhibition reaches its midpoint.

The text below walks through data of patent US20250114374A1, “BCL-2 INHIBITORS” (Newave Pharmaceutical Inc., priority 2021, published 2025).

The subject of this experiment is RS4; 11 with G101V mutation. Put plainly: In vitro anti-proliferation assay (ATPlite luminescence) in BCL-2-dependent ALL cell line RS4;11 with G101V mutation. It counts as cell-based. The note with it: read-out: RS411-G101V IC50. Summed up: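 IC50 came from luminescent ATP quantification (ATPlite) following cell lysis. Compound dose ranges were applied for roughly 72 h to about 1×10^4 G101V-mutant RS4;11 cells per well, in 10% FBS medium.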
For orientation: ATP-based viability assays read luminescence as a measure of living cells.

The mark [1] stands for this setting: cellular anti-proliferative IC50, about 72 hours, medium with 10% FBS, ATPlite.

Where two headings read alike, the source gives them in different places.

For `COc1cc(CN2CCN(C3CC4(CCN(c5ccc(C(=O)NS(=O)(=O)c6cc7c(c([N+](=O)[O-])c6)N[C@H](C6CCOCC6)CO7)c(N6c7cc8cc[nH]c8nc7O[C@H]7COCC[C@@H]76)c5)CC4)C3)[C@H](c3ccccc3C)C2)cnc1N1CCOC[C@@H]1C` [Example 187, 2-[(3R,8S)-2,5-dioxa-9,15,17-triazatetracyclo[8.7.0.0^{3,8}.0^{12,16}]heptadeca-1(10),11,13,16-tetraen-9-yl]-4-{2-[(2R)-4-({5-methoxy-6-[(3S)-3-methylmorpholin-4-yl]pyridin-3-yl}methyl)-2-(2-methylphenyl)piperazin-1-yl]-7-azaspiro[3.5]nonan-7-yl}-N-[(3R)-5-nitro-3-(oxan-4-yl)-3,4-dihydro-2H-1,4-benzoxazin-7-ylsulfonyl]benzamide], under setting [1], the IC50 stood at 0.00204 µM.

As for `COc1nc(CN2CCN(C3CC4(CCN(c5ccc(C(=O)NS(=O)(=O)c6ccc(NCC7CCC(C)(O)CC7)c([N+](=O)[O-])c6)c(N6c7cc8cc[nH]c8nc7O[C@H]7COCC[C@@H]76)c5)CC4)C3)[C@@H](c3ccccc3OC(C)C)C2)ccc1C` (stereo partly drawn) [Example 106, 2-[(3R,8S)-2,5-dioxa-9,15,17-triazatetracyclo[8.7.0.0^{3,8}.0^{12,16}]heptadeca-1(10),11,13,16-tetraen-9-yl]-4-{2-[(2S)-2-(2-isopropoxyphenyl)-4-[(6-methoxy-5-methylpyridin-2-yl)methyl]piperazin-1-yl]-7-azaspiro[3.5]nonan-7-yl}-N-[3-nitro-4-({[(1r,4r)-4-hydroxy-4-methylcyclohexyl]methyl}amino)benzenesulfonyl]benzamide], the IC50 under setting [1] came to 0.0329 µM.

As to `CC(C)Oc1ccccc1[C@H]1CN(Cc2cnc(N3CCOCC3)c(OC(C)C)c2)CCN1C1CC2(CCN(c3ccc(C(=O)NS(=O)(=O)c4ccc(NCC5CCC(C)(O)CC5)c([N+](=O)[O-])c4)c(N4c5cc6cc[nH]c6nc5O[C@H]5COCC[C@@H]54)c3)CC2)C1` (stereo partly drawn) [Example 137, 2-[(3R,8S)-2,5-dioxa-9,15,17-triazatetracyclo[8.7.0.0^{3,8}.0^{12,16}]heptadeca-1(10),11,13,16-tetraen-9-yl]-4-{2-[(2S)-4-{[5-isopropoxy-6-(morpholin-4-yl)pyridin-3-yl]methyl}-2-(2-isopropoxyphenyl)piperazin-1-yl]-7-azaspiro[3.5]nonan-7-yl}-N-[3-nitro-4-({[(1r,4r)-4-hydroxy-4-methylcyclohexyl]methyl}amino)benzenesulfonyl]benzamide], the concentration for half-maximal inhibition (IC50) under setting [1] was 0.0415 µM.

As to `Cc1ccccc1[C@@H]1CN([C@H]2CCOc3c2ccc(F)c3F)CCN1C1CC2(CCN(c3ccc(C(=O)NS(=O)(=O)c4cc5c(c([N+](=O)[O-])c4)N[C@H](C4CCOCC4)CO5)c(N4c5cc6cc[nH]c6nc5O[C@H]5COCC[C@@H]54)c3)CC2)C1` [Example 196, 4-{2-[(2R)-4-[(4S)-7,8-difluoro-3,4-dihydro-2H-1-benzopyran-4-yl]-2-(2-methylphenyl)piperazin-1-yl]-7-azaspiro[3.5]nonan-7-yl}-2-[(3R,8S)-2,5-dioxa-9,15,17-triazatetracyclo[8.7.0.0^{3,8}.0^{12,16}]heptadeca-1(10),11,13,16-tetraen-9-yl]-N-[(3R)-5-nitro-3-(oxan-4-yl)-3,4-dihydro-2H-1,4-benzoxazin-7-ylsulfonyl]benzamide], the IC50 under setting [1] came out at 0.0923 µM.

Consider `COc1cc(CN2CCN(C3CC4(CCN(c5ccc(C(=O)NS(=O)(=O)c6ccc(NCC7CCC(C)(O)CC7)c([N+](=O)[O-])c6)c(N6c7cc8cc[nH]c8nc7O[C@H]7COCC[C@@H]76)c5)CC4)C3)[C@@H](c3ccccc3OC(C)C)C2)cnc1N1CCOCC1` (stereo partly drawn) [Example 101, N-((4-((((1r,4r)-4-hydroxy-4-methylcyclohexyl)methyl)amino)-3-nitrophenyl)sulfonyl)-4-(2-((S)-2-(2-isopropoxyphenyl)-4-((5-methoxy-6-morpholinopyridin-3-yl)methyl)piperazin-1-yl)-7-azaspiro[3.5]nonan-7-yl)-2-((5aS,9aR)-6,7,9,9a-tetrahydro-1H-pyrano[3,4-b]pyrrolo[3′,2′:5,6]pyrido[3,2-e][1,4]oxazin-5(5aH)-yl)benzamide], for which the IC50 under setting [1] worked out at 0.0129 µM.

For `COc1nccc(CN2CCN(C3CC4(CCN(c5ccc(C(=O)NS(=O)(=O)c6ccc(NCC7CCC(C)(O)CC7)c([N+](=O)[O-])c6)c(N6c7cc8cc[nH]c8nc7O[C@H]7COCC[C@@H]76)c5)CC4)C3)[C@@H](c3ccccc3OC(C)C)C2)c1OC` (stereo partly drawn) [Example 150, 4-(2-((S)-4-((2,3-dimethoxypyridin-4-yl)methyl)-2-(2-isopropoxyphenyl)piperazin-1-yl)-7-azaspiro[3.5]nonan-7-yl)-N-((4-((((1r,4r)-4-hydroxy-4-methylcyclohexyl)methyl)amino)-3-nitrophenyl)sulfonyl)-2-((5aS,9aR)-6,7,9,9a-tetrahydro-1H-pyrano[3,4-b]pyrrolo[3′,2′:5,6]pyrido[3,2-e][1,4]oxazin-5(5aH)-yl)benzamide], the IC50 under setting [1] amounted to 0.0141 µM.

With `COc1c(N2CCOC[C@@H]2C)ncc2c1COC[C@@H]2N1CCN(C2CC3(CCN(c4ccc(C(=O)NS(=O)(=O)c5cc6c(c([N+](=O)[O-])c5)N[C@H](C5CCOCC5)CO6)c(N5c6cc7cc[nH]c7nc6O[C@H]6COCC[C@@H]65)c4)CC3)C2)[C@H](c2ccccc2OC(C)C)C1` [Example 251, 2-[(3R,8S)-2,5-dioxa-9,15,17-triazatetracyclo[8.7.0.0^{3,8}.0^{12,16}]heptadeca-1(10),11,13,16-tetraen-9-yl]-4-{2-[(2R)-2-(2-isopropoxyphenyl)-4-[(4R)-8-methoxy-7-[(3S)-3-methylmorpholin-4-yl]-1H,3H,4H-pyrano[4,3-c]pyridin-4-yl]piperazin-1-yl]-7-azaspiro[3.5]nonan-7-yl}-N-[(3R)-5-nitro-3-(oxan-4-yl)-3,4-dihydro-2H-1,4-benzoxazin-7-ylsulfonyl]benzamide], the IC50 under setting [1] was found to be 0.0269 µM.

As to `COc1ccc(CN2CCN(C3CC4(CCN(c5ccc(C(=O)NS(=O)(=O)c6cc7c(c([N+](=O)[O-])c6)N[C@H](C6CCOCC6)CO7)c(N6c7cc8cc[nH]c8nc7O[C@H]7COCC[C@@H]76)c5)CC4)C3)[C@H](c3ccccc3OC(C)C)C2)cn1` [Example 258, 4-(2-((R)-2-(2-isopropoxyphenyl)-4-((6-methoxypyridin-3-yl)methyl)piperazin-1-yl)-7-azaspiro[3.5]nonan-7-yl)-N-(((R)-5-nitro-3-(tetrahydro-2H-pyran-4-yl)-3,4-dihydro-2H-benzo[b][1,4]oxazin-7-yl)sulfonyl)-2-((5aS,9aR)-6,7,9,9a-tetrahydro-1H-pyrano[3,4-b]pyrrolo[3′,2′:5,6]pyrido[3,2-e][1,4]oxazin-5(5aH)-yl)benzamide], the IC50 (Homo sapiens, RS4-11, 72 h) is 0.0117 µM.

With `CNc1ccc(CN2CCN(C3CC4(CCN(c5ccc(C(=O)NS(=O)(=O)c6cc7c(c([N+](=O)[O-])c6)N[C@H](C6CCOCC6)CO7)c(N6c7cc8cc[nH]c8nc7O[C@H]7COCC[C@@H]76)c5)CC4)C3)[C@H](c3ccccc3OC(C)C)C2)cn1` [Example 259, 2-[(3R,8S)-2,5-dioxa-9,15,17-triazatetracyclo[8.7.0.0^{3,8}.0^{12,16}]heptadeca-1(10),11,13,16-tetraen-9-yl]-4-{2-[(2R)-2-(2-isopropoxyphenyl)-4-{[6-(methylamino)pyridin-3-yl]methyl}piperazin-1-yl]-7-azaspiro[3.5]nonan-7-yl}-N-[(3R)-5-nitro-3-(oxan-4-yl)-3,4-dihydro-2H-1,4-benzoxazin-7-ylsulfonyl]benzamide], under setting [1], the 50% inhibitory concentration (IC50) is 0.00972 µM.

With `CC(C)Oc1ccccc1[C@@H]1CN(Cc2ccc(F)c(F)c2)CCN1C1CC2(CCN(c3ncc(C(=O)NS(=O)(=O)c4cc5c(c([N+](=O)[O-])c4)N[C@H](C4CCOCC4)CO5)c(N4c5cc6cc[nH]c6nc5O[C@H]5COCC[C@@H]54)c3F)CC2)C1` [Example 228, 6-{2-[(2R)-4-[(3,4-difluorophenyl)methyl]-2-(2-isopropoxyphenyl)piperazin-1-yl]-7-azaspiro[3.5]nonan-7-yl}-4-[(3R,8S)-2,5-dioxa-9,15,17-triazatetracyclo[8.7.0.0^{3,8}.0^{12,16}]heptadeca-1(10),11,13,16-tetraen-9-yl]-5-fluoro-N-[(3R)-5-nitro-3-(oxan-4-yl)-3,4-dihydro-2H-1,4-benzoxazin-7-ylsulfonyl]pyridine-3-carboxamide], the IC50 under setting [1] stood at 0.202 µM.

As to `CC(C)Oc1ccccc1[C@@H]1CN(C2CCC3(CCOCC3)CC2)CCN1C1CC2(CCN(c3ccc(C(=O)NS(=O)(=O)c4cc5c(c([N+](=O)[O-])c4)N[C@H](C4CCOCC4)CO5)c(N4c5cc6cc[nH]c6nc5O[C@H]5COCC[C@@H]54)c3)CC2)C1` (stereo partly drawn) [Example 209, 2-[(3R,8S)-2,5-dioxa-9,15,17-triazatetracyclo[8.7.0.0^{3,8}.0^{12,16}]heptadeca-1(10),11,13,16-tetraen-9-yl]-4-{2-[(2R)-2-(2-isopropoxyphenyl)-4-{3-oxaspiro[5.5]undecan-9-yl}piperazin-1-yl]-7-azaspiro[3.5]nonan-7-yl}-N-[(3R)-5-nitro-3-(oxan-4-yl)-3,4-dihydro-2H-1,4-benzoxazin-7-ylsulfonyl]benzamide], under setting [1], the IC50 came to 0.0163 µM.

Consider `Cc1ccccc1[C@@H]1CN(C2CCOCC2)CCN1C1CC2(CCN(c3ccc(C(=O)NS(=O)(=O)c4cc5c(c([N+](=O)[O-])c4)N[C@H](C4CCOCC4)CO5)c(N4c5cc6cc[nH]c6nc5O[C@H]5COCC[C@@H]54)c3)CC2)C1` [Example 183, N—(((R)-5-nitro-3-(tetrahydro-2H-pyran-4-yl)-3,4-dihydro-2H-benzo[b][1,4]oxazin-7-yl)sulfonyl)-2-((5aS,9aR)-6,7,9,9a-tetrahydro-1H-pyrano[3,4-b]pyrrolo[3′,2′:5,6]pyrido[3,2-e][1,4]oxazin-5(5aH)-yl)-4-(2-((R)-4-(tetrahydro-2H-pyran-4-yl)-2-(o-tolyl)piperazin-1-yl)-7-azaspiro[3.5]nonan-7-yl)benzamide], for which the IC50 (Homo sapiens, RS4-11, 72 h) came to 0.0733 µM.
